According to patent US7253212B2, “Retinol derivative and cosmetic composition comprising the same” (Coreana Cosmetics Co., Ltd., priority 2002, dated 2007):

How the values were obtained:
tyrosinase = assay: Inhibitory effect on tyrosinase activity; type: biochemical
Experimental: A tyrosinase used herein was purchased from Sigma (U.S.A.). Tyrosine as substrate was used as a solution (0.1 mg/ml) dissolved in 0.05 M sodium phosphate buffer (pH 6.8).
0.5 ml of tyrosine solution was placed in a test tube and 0.5 ml of sample solution to be evaluated was added. The test tube was allowed to stand in incubator for 10 min. at 37° C. and then 0.5 ml of tyrosinase (200 U/ml) was added. The reaction was carried out for 10 min at 37° C. As a control group, 0.5 ml of buffer solution was added instead of the sample to be evaluated. The reaction was quenched by placing the test tube on ice and the absorbance of the resultant was measured at 475 nm with spectrophotometer. The inhibitory effect on tyrosinase activity was determined by the equation: inhibition rate on tyrosinase activity (%)=100−{(absorbance of sample/absorbance of control)×100}

Human normal fibroblasts = assay: Effect on collagen biosynthesis (procollagen type C-peptide kit); type: cell-based; details: 48 hours treatment
Experimental: Human normal fibroblasts (ATCC) were inoculated (2×10^4 cells/well) on 96-well microplate containing DMEM supplemented with FBS and incubated for 24 hours at 37° C. After incubation, the medium in microplate was replaced with fresh DMEM without serum comprising the derivative of this invention, retinol or ascorbic acid and then additional incubation for 48 hours was carried out. Control was not treated with any of the compounds described above. Following incubation, each well was rinsed, fresh DMEM without serum was supplied and then additional incubation for 24 hours was performed. Then, procollagen type C-peptide obtained from the supernatant of each well was measured using a kit purchased from Takara Co. (Japan) and the measured values were converted to ng/2×10^4 cells, which indicate the amount of collagen newly generated.

[1] = Scavenging effect on free radical (DPPH); details: 30 min, absorbance 520 nm
Experimental: Evaluation of scavenging effect on free radical was performed using DPPH (1,1-diphenyl-2-picryl-hydrazyl, Sigma-Aldrich). 100 μl of each of the substances (the derivative of this invention, retinol and ascorbic acid) diluted to a suitable concentration and 100 μl of 400 μM DPPH solution were consequently added to a 96-well microplate and agitation was performed, followed by reaction for 30 min. at room temperature. Then, absorbance at 520 nm was measured using spectrophotometer. Control contains 100 μl of ethanol in place of the substance to be tested. The scavenging effect on free radical was calculated as following formula: scavenging effect on free radical (%)=100−{(absorbance of sample solution/absorbance of control)×100}

## CC1=C(/C=C/C(C)=C/C=C/C(C)=C/COC(=O)COC2=C(O)C(=O)OC2C(O)CO)C(C)(C)CCC1 (stereo not drawn) [Derivative of this invention]
tyrosinase; sample conc. 10 μg/ml
  Inhibition rate on tyrosinase activity (%): 8.1%
tyrosinase; sample conc. 20 μg/ml
  Inhibition rate on tyrosinase activity (%): 10.7%
tyrosinase; sample conc. 50 μg/ml
  Inhibition rate on tyrosinase activity (%): 13.8%
tyrosinase; sample conc. 100 μg/ml
  Inhibition rate on tyrosinase activity (%): 32.9%
tyrosinase; sample conc. 200 μg/ml
  Inhibition rate on tyrosinase activity (%): 47.1%
tyrosinase; sample conc. 500 μg/ml
  Inhibition rate on tyrosinase activity (%): 78.8%
Human normal fibroblasts; addition amount 50 μg
  Amount of Collagen Newly Generated: 215 ng/2 × 10^4 cells
Human normal fibroblasts; addition amount 100 μg
  Amount of Collagen Newly Generated: 290 ng/2 × 10^4 cells
Human normal fibroblasts; addition amount 200 μg
  Amount of Collagen Newly Generated: 349 ng/2 × 10^4 cells
[1]; concentration 0.5 mM
  Scavenging effect on free radical (%): 95.7%
[1]; concentration 1 mM
  Scavenging effect on free radical (%): 96.4%

## O=C1O[C@H]([C@@H](O)CO)C(O)=C1O [L-ascorbic acid]
tyrosinase; sample conc. 10 μg/ml
  Inhibition rate on tyrosinase activity (%): 5.1%
tyrosinase; sample conc. 20 μg/ml
  Inhibition rate on tyrosinase activity (%): 9.8%
tyrosinase; sample conc. 50 μg/ml
  Inhibition rate on tyrosinase activity (%): 13.2%
tyrosinase; sample conc. 100 μg/ml
  Inhibition rate on tyrosinase activity (%): 22.5%
tyrosinase; sample conc. 200 μg/ml
  Inhibition rate on tyrosinase activity (%): 34.8%
tyrosinase; sample conc. 500 μg/ml
  Inhibition rate on tyrosinase activity (%): 62.4%
Human normal fibroblasts; addition amount 50 μg
  Amount of Collagen Newly Generated: 198 ng/2 × 10^4 cells
Human normal fibroblasts; addition amount 100 μg
  Amount of Collagen Newly Generated: 267 ng/2 × 10^4 cells
Human normal fibroblasts; addition amount 200 μg
  Amount of Collagen Newly Generated: 314 ng/2 × 10^4 cells
[1]; concentration 0.5 mM
  Scavenging effect on free radical (%): 91.2%
[1]; concentration 1 mM
  Scavenging effect on free radical (%): 91.9%

## CC1=C(/C=C/C(C)=C/C=C/C(C)=C/CO)C(C)(C)CCC1 [Retinol]
tyrosinase; sample conc. 10 μg/ml
  Inhibition rate on tyrosinase activity (%): 0.6%
tyrosinase; sample conc. 20 μg/ml
  Inhibition rate on tyrosinase activity (%): 1.1%
tyrosinase; sample conc. 50 μg/ml
  Inhibition rate on tyrosinase activity (%): 3.2%
tyrosinase; sample conc. 100 μg/ml
  Inhibition rate on tyrosinase activity (%): 3.9%
tyrosinase; sample conc. 200 μg/ml
  Inhibition rate on tyrosinase activity (%): 5.6%
tyrosinase; sample conc. 500 μg/ml
  Inhibition rate on tyrosinase activity (%): 9.2%
Human normal fibroblasts; addition amount 50 μg
  Amount of Collagen Newly Generated: 174 ng/2 × 10^4 cells
Human normal fibroblasts; addition amount 100 μg
  Amount of Collagen Newly Generated: 233 ng/2 × 10^4 cells
Human normal fibroblasts; addition amount 200 μg
  Amount of Collagen Newly Generated: 286 ng/2 × 10^4 cells
[1]; concentration 0.5 mM
  Scavenging effect on free radical (%): 0.4%
[1]; concentration 1 mM
  Scavenging effect on free radical (%): 1.6%
